Measurements from US5612217A, “Streptomyces sp. MA 7074 (ATCC 55605) used for microbial synthesis of HIV protease inhibitors” (Merck & Co., Inc., priority 1994, dated 1997).

Molecular target: T1, HIV protease (Human immunodeficiency virus type 1 group M subtype B, UniProt P03366)
T1 construct: the protease expressed in Eschericia coli; made in house; host or cells: Escherichia coli
Test: Assay for inhibition of microbial expressed HIV protease (in vitro, peptide substrate cleavage, HPLC)
Type: biochemical
Conditions: for % Potency Relative to Compound J, Based On Nominal Wt. / % Potency Relative to Compound J, Based on HPLC: IC50 of Compound J / IC50 of test compound x 100; for % Potency Relative to Compound J, Based On Nominal Wt.: dilution based on nominal weight; for % Potency Relative to Compound J, Based on HPLC: concentration checked by HPLC using J as standard
Procedure: Inhibition studies of the reaction of the protease expressed in Eschericia coli with a peptide substrate [Val-Ser-Gln-Asn-(betanapthyl)Ala-Pro-Ile-Val, 0.5 mg/mL at the time the reaction is initiated] were in 50 mM Na acetate, pH 5.5, at 30° C. for 1 hour. Various concentrations of inhibitor in 1.0 μl DMSO were added to 25 μl of the peptide solution in water. The reaction is initiated by the addition of 15 μl of 0.33 nM protease (0.11 ng) in a solution of 0.133M Na acetate pH 5.5 and 0.1% bovine serum albumin. The reaction was quenched with 160 μl of 5% phosphoric acid. Products of the reaction were separated by HPLC (VYDAC wide pore 5 cm C-18 reverse phase, acetonitrile gradient, 0.1% phosphoric acid). The extent of inhibition of the reaction was determined as IC50 from the peak heights of the products.
Seven Compound J bioconversion products were assayed for in vitro HIV protease inhibitory by the assay for inhibition of microbial expressed HIV Protease, protocol given above. Two of the bioconversion products were isolated from MA7074 incubations, Compounds B1 and F. The IC50 of the parent Compound J was divided by the IC50 of each test compound and multiplied by 100 in order to calculate the percent potency of each compound relative to J.
In some cases, the dilution of the test compound was based on nominal weight. In other cases, especially when the weight was less than 250 μg, the concentration was checked by HPLC using J as standard.

CC(C)(C)NC(=O)[C@@H]1CN(Cc2cccnc2)CCN1C[C@@H](O)C[C@@H](Cc1ccccc1)C(=O)N[C@H]1c2ccccc2[C@H](O)[C@H]1O [A]
% Potency Relative to Compound J, Based On Nominal Wt.: 27%

CC(C)(C)NC(=O)[C@@H]1CN(Cc2cccnc2)CCN1C[C@@H](O)C[C@@H](Cc1ccccc1)C(=O)N[C@H]1c2ccccc2[C@@H](O)[C@H]1O [Compound B1]
% Potency Relative to Compound J, Based on HPLC: 115%

CC(C)(C)NC(=O)[C@@H]1CN(Cc2cccnc2)CCN1C[C@@H](O)C[C@@H](Cc1ccccc1)C(=O)N[C@H]1c2ccccc2C(=O)[C@H]1O [Compound F]
% Potency Relative to Compound J, Based On Nominal Wt.: 16% | HIV-protease activity (in words) (qualitative statement, compared with Compound J where stated): less HIV-protease activity than Compound J

CC(C)(C)NC(=O)[C@@H]1CN(Cc2cccnc2)CCN1C[C@@H](O)C[C@@H](Cc1ccc(O)cc1)C(=O)N[C@H]1c2ccccc2C[C@H]1O [D]
% Potency Relative to Compound J, Based on HPLC: 31% | % Potency Relative to Compound J, Based On Nominal Wt.: 3.1%

CC(C)(C)NC(=O)[C@@H]1CN(Cc2ccc[n+]([O-])c2)CCN1C[C@@H](O)C[C@@H](Cc1ccccc1)C(=O)N[C@H]1c2ccccc2C[C@H]1O [E]
% Potency Relative to Compound J, Based On Nominal Wt.: 34%
